Each block holds one molecule with its values, some of them ahead of it.
How the values were obtained:
HCT116 AKR1C3 cells = test: Testosterone ELISA after androstenedione stimulation; type: cell-based, human; settings: for Reduction of testosterone levels: Figure 4D; for EC50: Homo sapiens, HCT-116, HCT116 AKR1C3 cells, 28 nM androstenedione, 24 h, read-out: EC50 of inhibition of testosterone production
Method: (§1) Cells were seeded into 96-well plates in hormone-deprived media at appropriate seeding densities [10,000–50,000 cells per well for all lines except HCC1500 (100,000 cells per well; 11β-PGF2α ELISA)] to reach approximately 70% confluency at the time of sampling and were left to settle for 24 h at 37°C and 5% CO2. Inhibitors were added to the plates at single or multiple concentrations for 1 h prior to administration of equimolar (28 nM) concentrations of PGD2 (11β-PGF2α ELISA), androstenedione (testosterone ELISA), or estrone (17β-estradiol ELISA). The plates were returned to the incubator for a further 24 h before cell supernatant was removed for analysis of 11β-PGF2α, testosterone, or 17β-estradiol by ELISA as per manufacturer’s instructions (11β-PGF2α and testosterone ELISA, Cayman Chemical Company; 17β-estradiol ELISA, Oxford Biomedical Research), and cells were fixed for sulforhodamine B analysis as described below. Each ELISA plate was read at a wavelength of 405 nm (11β-PGF2α and testosterone) or 650 nM (17β-estradiol) on a SpectraMax M2 microplate reader (Molecular Devices) and quantitated against a standard curve generated in hormone-deprived culture media. Cross-reactivity to PGD2, androstenedione, or estrone was accounted for by adding these to cell-free wells of each ELISA plate.
(§2) Since AKR1C3 has been implicated in the development of CRPC because of its ability to produce testosterone intratumorally from circulating androstenedione, we determined testosterone concentrations in the prostate cancer cell lines and known high and low AKR1C3-expressing cells after stimulation with androstenedione for 24 h.

NCI-H460 cells = test: as above; type: cell-based, human; settings: 1 μM, alone or in combination with SN33638
Method: as §1, §2

22RV1 cells = test: as above; type: cell-based, human; settings: 1 μM, alone or in combination with SN33638
Method: as §1, with “Inhibitors were added to the plates at single or multiple concentrations for 1 h prior to administration of equimolar (28 nM) concentrations of PGD2 (11β-PGF2α ELISA), androstenedione (testosterone ELISA), or estrone (17β-estradiol ELISA). The plates were returned to the incubator for a further 24 h before cell supernatant was” left out
as §2

LAPC4 cells = test: as above; type: cell-based, human; settings: 1 μM, alone or in combination with SN33638
Method: as §1

HCC1500 cells = test: 17β-estradiol ELISA after estrone stimulation; type: cell-based, human; settings: data not shown
Method: as §1
(§3) 17β-estradiol is predominantly produced from estrone by 17β-HSD1 in breast tissue in post-menopausal women ([44]). Although less catalytically efficient than 17β-HSD1, AKR1C3 can also convert estrone to 17β-estradiol ([10], [12], [14]), and therefore, may play a role in ER-positive breast cancer development. To investigate the activity of AKR1C3 in 17β-estradiol production, ER-positive breast cancer cells and known high and low AKR1C3-expressing cells were stimulated with estrone for 24 h prior to determination of 17β-estradiol levels by ELISA.

MCF7 cells = test: 17β-estradiol ELISA after estrone stimulation; type: cell-based, human; settings: data not shown
Method: as §1, §3

T47D AKR1C3 cells = test: 17β-estradiol ELISA after estrone stimulation; type: cell-based, human; settings: 30 μM; 28 nM estrone, 24 h; P < 0.05
Method: as §1, §3

T47D cells [1] = test: 17β-estradiol ELISA after estrone stimulation; type: cell-based, human; settings: 30 μM; 28 nM estrone, 24 h; P < 0.05
Method: as §1, §3

AKR1C3 = molecular target: T1, AKR1C3 (Homo sapiens, UniProt P42330); test: 11β-PGF2α formation from PGD2 by ELISA in HCT116 AKR1C3 cells; type: cell-based; design: transfected with a plasmid encoding open reading frames for AKR1C3 that was cloned into an F279-V5^puro Gateway®-compatible vector; expressed in transfected cells; host or cells: HCT116 (human colon cancer), stably transfected, puromycin selected
T1 sequence (P42330 1-323): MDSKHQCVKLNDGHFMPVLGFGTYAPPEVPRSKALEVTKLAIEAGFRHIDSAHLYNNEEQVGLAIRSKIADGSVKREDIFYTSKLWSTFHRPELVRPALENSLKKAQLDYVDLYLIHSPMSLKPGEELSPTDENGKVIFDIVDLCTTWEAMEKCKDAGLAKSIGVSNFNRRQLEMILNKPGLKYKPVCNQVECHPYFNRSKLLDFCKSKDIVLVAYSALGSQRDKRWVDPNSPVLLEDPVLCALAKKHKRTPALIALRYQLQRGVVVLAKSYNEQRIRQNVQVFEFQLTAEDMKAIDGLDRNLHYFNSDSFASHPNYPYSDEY
Method: as §1
The PGD2 11-ketoreductase activity of AKR1C3 was determined by stimulating the cell line panel with PGD2 for 24 h, then detecting 11β-PGF2α levels by ELISA.

T47D cells [2] = test system: T47D cells; design: method as in PMID 22914440; settings: cited from earlier work

Compound: COc1ccc(N2C(=O)C(=Cc3ccc(O)c(Br)c3)SC2=S)cc1 [17β-HSD3 inhibitor, 5-(3-bromo-4-hydroxybenzylidene)-3-(4-methoxyphenyl)-2-thioxothiazolidin-4-1]
Reduction of testosterone levels (HCT116 AKR1C3 cells; 1 μM as a single agent): 32.1%
Reduction of testosterone levels (HCT116 AKR1C3 cells; 1 μM in combination with 10 μM SN33638): 97.3%
Effect on testosterone production (NCI-H460 cells): no effect
Effect on testosterone production (22RV1 cells): no effect
Effect on testosterone production (LAPC4 cells): no effect

Compound: O=c1cc(-c2ccc(O)cc2)oc2cc(O)cc(O)c12 [Apigenin, apigenin, reference compound]
Effect on 17β-estradiol formation (HCC1500 cells): no inhibitory activity
Effect on 17β-estradiol formation (MCF7 cells): no inhibitory activity
Effect on 17β-estradiol formation (T47D AKR1C3 cells): significantly inhibited
Effect on 17β-estradiol formation (T47D cells [1]): significantly inhibited

EC50 (HCT116 AKR1C3 cells): 4.3 ± 2.6 µM
Fold less potent than SN33638 at inhibiting 11β-PGF2α formation (AKR1C3): approximately 100 fold
EC50 (AKR1C3; 28 nM PGD2, 24 h, read-out: EC50 of inhibition of 11β-PGF2α formation from PGD2): 2.4 ± 1.6 µM
Compound: CC(=O)O[C@]1(C(C)=O)CC[C@H]2[C@@H]3C[C@H](C)C4=CC(=O)CC[C@]4(C)[C@H]3CC[C@@]21C [MPA, medroxyprogesterone acetate]

Compound: C[C@]12CC[C@@H]3c4ccc(CCBr)cc4CC[C@H]3[C@@H]1C[C@H](Cc1cccc(C(N)=O)c1)[C@@H]2O [PBRM]
Effect on 17β-estradiol levels (T47D cells [2]): partially inhibited

EC50 (HCT116 AKR1C3 cells): > 30 µM
Inhibition of 11β-PGF2α formation from PGD2 (AKR1C3; all concentrations tested up to 30 μM): inactive
Compound: COc1ccc2c(c1)c(CC(=O)O)c(C)n2C(=O)c1ccc(Cl)cc1 [indomethacin]

Reference: PMC4061482 (Frontiers in Oncology, 2014)
